Data from patent publication US8501090B2, “Anti-microbial gas apparatus and method” (priority 2008, dated 2013).

Tested on: bacteria on healthy skin (back of the hand)
Experiment: Anti-microbial effectiveness of nitric oxide on volunteers' hands (swab, five zone dilution on agar, zone-based grading)
Assay type: in vivo
Description: An experiment 46 used to determine the anti-microbial effectiveness of nitric oxide is illustrated in FIG. 3. In the experiment, five volunteers were selected 48. From a first hand of each volunteer, a technician using sterile gloves collected 50 a sample. This was accomplished by rubbing the back of the volunteer's hand with a sterile cotton collection swab for ten seconds. The swab was then applied 52 to a nutrient agar petri dish using the five corner or zone dilution method.
The five corner or zone dilution method involves mechanically diluting bacteria on a streak (blood agar) plate by sequentially spreading the bacteria across the plate in each of five zones. As the concentration of bacteria increases so do the number of zones containing bacteria. Bacteria on agar plate become visible as distinct circular colonies. Each colony represents an individual cell which has divided repeatedly to form a patch. The number of bacteria can be estimated by counting the number of patches or how far the bacteria is diluted by streaking it on the agar plate through the five zones.
After the sample was collected 50, the first hand was cleaned 54 using nitric oxide. This was done by placing the hand of the volunteer into a one-gallon plastic freezer bag. The bag was then inflated with nitric oxide through tubing attached to a portable nitric oxide generator. The open end of the bag was taped closed against the volunteer's forearm. A nitric oxide monitor assisted in keeping the nitric oxide concentration within the bag at 1,000 parts-per-million (ppm).
The volunteer maintained the hand inside the bag for fifteen minutes. After the fifteen minutes, the hand was removed from the bag in a sterile manner (i.e., the hand was not permitted to contact any non-sterile objects). Using sterile gloves and a sterile cotton collection swab, the technician collected 56 a second sample by rubbing the swab on the back of the hand for ten seconds. The swab was then applied 58 to a nutrient dish as explained above.
A similar process was followed with the volunteer's other hand. […]

[N]=O [nitric oxide] was tested, and the “reductions in colony counts of bacteria” value (bacteria exposed to nitric oxide, microbes on healthy skin) was “substantial reductions in colony counts”, the anti-microbial effects (direct comparison: immersing in enclosed environment of nitric oxide diluted with ambient air vs scrubbing with antibacterial soaps) was “superior to soaps” and the bacterial colony count (hands exposed to 1,000 ppm nitric oxide for fifteen minutes, compared with hands washed with DIAL antibacterial soap for 2 minutes, five volunteers) was “lower bacterial colony count”.
